Reference: the NIST ThermoML archive (doi:10.1007/s10765-008-0491-0)
± gives the expanded uncertainty stated by the source.

Experiment: xn = mol fraction of the nth substance listed
Settings: 101 kPa, Liquid; for speed of sound: Sing-around technique in a fixed-path interferometer; for mass density: Vibrating tube method; for viscosity: Capillary tube (Ostwald / Ubbelohde) method

CCCCCCCCO [octan-1-ol] + CC(C)CCCC(C)CCCC(C)CCCCC(C)CCCC(C)CCCC(C)C
x1 = 1
Settings	mass density [kg/m3]	speed of sound [m/s]	viscosity [mPa·s]
293.15 K	821.813 ± 0.42	1348 ± 0.8	–
298.15 K	–	–	7.506 ± 0.042
303.15 K	818.796 ± 0.42	1330.8 ± 0.8	6.344 ± 0.036
308.15 K	815.286 ± 0.42	1314.1 ± 0.8	5.363 ± 0.032

CC(C)CCCC(C)CCCC(C)CCCCC(C)CCCC(C)CCCC(C)C (stereo not drawn) [2,6,10,15,19,23-hexamethyltetracosane] + CCCCCCCCO
Settings	mass density, 293.15 K [kg/m3]	mass density, 303.15 K [kg/m3]	mass density, 308.15 K [kg/m3]	speed of sound, 293.15 K [m/s]	speed of sound, 303.15 K [m/s]	speed of sound, 308.15 K [m/s]	viscosity, 298.15 K [mPa·s]	viscosity, 303.15 K [mPa·s]	viscosity, 308.15 K [mPa·s]
x2 = 0	805.122 ± 0.42	801.912 ± 0.42	798.709 ± 0.42	1381.9 ± 0.9	1364.1 ± 0.8	1346.5 ± 0.8	28.26 ± 0.14	22.09 ± 0.11	17.77 ± 0.09
x2 = 0.0596	805.175 ± 0.42	801.944 ± 0.42	798.711 ± 0.42	1379.9 ± 0.9	1362.1 ± 0.8	1344.1 ± 0.8	24.18 ± 0.12	19.21 ± 0.097	15.49 ± 0.08
x2 = 0.1053	805.299 ± 0.42	802.053 ± 0.42	798.798 ± 0.42	1378.5 ± 0.9	1360.4 ± 0.8	1343.1 ± 0.8	21.92 ± 0.11	17.59 ± 0.089	14.21 ± 0.073
x2 = 0.1563	805.499 ± 0.42	802.234 ± 0.42	798.947 ± 0.42	1376.9 ± 0.9	1359.3 ± 0.8	1341.5 ± 0.8	20.12 ± 0.1	16.25 ± 0.083	13.14 ± 0.068
x2 = 0.2092	805.773 ± 0.42	802.479 ± 0.42	799.184 ± 0.42	1375.7 ± 0.9	1357.8 ± 0.8	1340.2 ± 0.8	18.81 ± 0.095	15.26 ± 0.078	12.34 ± 0.065
x2 = 0.2648	806.107 ± 0.42	802.799 ± 0.42	799.487 ± 0.42	1374.2 ± 0.9	1356.4 ± 0.8	1338.7 ± 0.8	17.88 ± 0.09	14.5 ± 0.075	11.73 ± 0.062
x2 = 0.3404	806.637 ± 0.42	803.312 ± 0.42	799.989 ± 0.42	1372.4 ± 0.9	1354.5 ± 0.8	1336.8 ± 0.8	16.97 ± 0.086	13.74 ± 0.071	11.13 ± 0.059
x2 = 0.398	807.105 ± 0.42	803.775 ± 0.42	800.439 ± 0.42	1370.8 ± 0.9	1352.9 ± 0.8	1335.3 ± 0.8	16.38 ± 0.083	13.24 ± 0.069	10.72 ± 0.057
x2 = 0.4799	807.875 ± 0.42	804.507 ± 0.42	801.188 ± 0.42	1368.6 ± 0.8	1350.7 ± 0.8	1333.1 ± 0.8	15.42 ± 0.079	12.45 ± 0.065	10.12 ± 0.054
x2 = 0.5974	809.279 ± 0.42	805.92 ± 0.42	802.536 ± 0.42	1364.9 ± 0.8	1347.1 ± 0.8	1329.5 ± 0.8	13.55 ± 0.07	11.01 ± 0.058	9.007 ± 0.049
x2 = 0.6988	810.937 ± 0.42	807.538 ± 0.42	804.116 ± 0.42	1361.3 ± 0.8	1343.7 ± 0.8	1326.1 ± 0.8	11.51 ± 0.06	9.441 ± 0.051	7.786 ± 0.043
x2 = 0.8079	813.477 ± 0.42	810.008 ± 0.42	806.567 ± 0.42	1356.9 ± 0.8	1339.5 ± 0.8	1322.1 ± 0.8	9.294 ± 0.05	7.693 ± 0.043	6.416 ± 0.037
x2 = 0.8519	814.812 ± 0.42	811.352 ± 0.42	807.925 ± 0.42	1355.2 ± 0.8	1337.8 ± 0.8	1320.4 ± 0.8	8.533 ± 0.047	7.093 ± 0.04	5.937 ± 0.034
x2 = 0.8942	816.384 ± 0.42	812.92 ± 0.42	809.463 ± 0.42	1353.2 ± 0.8	1335.9 ± 0.8	1318.7 ± 0.8	7.963 ± 0.044	6.624 ± 0.038	5.572 ± 0.033
x2 = 0.9474	818.773 ± 0.42	815.429 ± 0.42	811.955 ± 0.42	1350.6 ± 0.8	1333.5 ± 0.8	1316.4 ± 0.8	7.526 ± 0.042	6.288 ± 0.036	5.31 ± 0.031

CCCCCCCCO [octan-1-ol] + CCCCCCCCCCCCCCCC
x1 = 1
Settings	mass density [kg/m3]	speed of sound [m/s]	viscosity [mPa·s]
293.15 K	821.813 ± 0.42	1348 ± 0.8	–
298.15 K	–	–	7.508 ± 0.042
303.15 K	818.796 ± 0.42	1330.8 ± 0.8	6.344 ± 0.036
308.15 K	815.286 ± 0.42	1314.1 ± 0.8	5.363 ± 0.032

CCCCCCCCCCCCCCCC [hexadecane] + CCCCCCCCO
Settings	mass density, 293.15 K [kg/m3]	mass density, 303.15 K [kg/m3]	mass density, 308.15 K [kg/m3]	speed of sound, 293.15 K [m/s]	speed of sound, 303.15 K [m/s]	speed of sound, 308.15 K [m/s]	viscosity, 298.15 K [mPa·s]	viscosity, 303.15 K [mPa·s]	viscosity, 308.15 K [mPa·s]
x2 = 0	770.456 ± 0.42	766.981 ± 0.42	763.52 ± 0.42	1338.6 ± 0.8	1320 ± 0.8	1301.7 ± 0.8	3.041 ± 0.019	2.706 ± 0.017	2.409 ± 0.015
x2 = 0.0461	771.581 ± 0.42	768.09 ± 0.42	764.586 ± 0.42	1337 ± 0.8	1318.4 ± 0.8	1299.9 ± 0.8	3.073 ± 0.019	2.748 ± 0.017	2.402 ± 0.015
x2 = 0.1039	773.103 ± 0.42	769.605 ± 0.42	766.078 ± 0.42	1335.7 ± 0.8	1317.1 ± 0.8	1298.7 ± 0.8	3.089 ± 0.019	2.741 ± 0.017	2.399 ± 0.015
x2 = 0.1547	774.574 ± 0.42	771.039 ± 0.42	767.495 ± 0.42	1334.7 ± 0.8	1316.1 ± 0.8	1297.7 ± 0.8	3.096 ± 0.019	2.728 ± 0.017	2.406 ± 0.015
x2 = 0.1944	775.766 ± 0.42	772.218 ± 0.42	768.68 ± 0.42	1334.3 ± 0.8	1315.8 ± 0.8	1297.4 ± 0.8	3.107 ± 0.019	2.728 ± 0.017	2.419 ± 0.015
x2 = 0.2685	778.197 ± 0.42	774.63 ± 0.42	771.077 ± 0.42	1333.7 ± 0.8	1315.3 ± 0.8	1296.9 ± 0.8	3.175 ± 0.019	2.773 ± 0.017	2.473 ± 0.015
x2 = 0.3383	780.693 ± 0.42	777.145 ± 0.42	773.575 ± 0.42	1333.5 ± 0.8	1315.1 ± 0.8	1296.8 ± 0.8	3.29 ± 0.02	2.881 ± 0.018	2.561 ± 0.016
x2 = 0.4099	783.479 ± 0.42	779.937 ± 0.42	776.383 ± 0.42	1333.3 ± 0.8	1314.9 ± 0.8	1296.8 ± 0.8	3.472 ± 0.021	3.041 ± 0.019	2.688 ± 0.017
x2 = 0.4981	787.31 ± 0.42	783.781 ± 0.42	780.228 ± 0.42	1333.5 ± 0.8	1315.3 ± 0.8	1297.2 ± 0.8	3.768 ± 0.023	3.307 ± 0.02	2.896 ± 0.018
x2 = 0.6017	792.441 ± 0.42	788.911 ± 0.42	785.346 ± 0.42	1334.2 ± 0.8	1316.2 ± 0.8	1298.4 ± 0.8	4.223 ± 0.026	3.681 ± 0.022	3.218 ± 0.02
x2 = 0.6927	797.621 ± 0.42	794.075 ± 0.42	790.488 ± 0.42	1335.8 ± 0.8	1317.9 ± 0.8	1300.2 ± 0.8	4.714 ± 0.028	4.086 ± 0.025	3.554 ± 0.022
x2 = 0.7963	804.426 ± 0.42	800.846 ± 0.42	797.284 ± 0.42	1338.5 ± 0.8	1320.9 ± 0.8	1303.4 ± 0.8	5.384 ± 0.032	4.663 ± 0.028	4.008 ± 0.024
x2 = 0.8445	808.003 ± 0.42	804.438 ± 0.42	800.882 ± 0.42	1340.1 ± 0.8	1322.6 ± 0.8	1305.3 ± 0.8	5.757 ± 0.034	4.992 ± 0.03	4.251 ± 0.026
x2 = 0.895	812.077 ± 0.42	808.561 ± 0.42	805.017 ± 0.42	1342.2 ± 0.8	1324.9 ± 0.8	1307.8 ± 0.8	6.219 ± 0.036	5.383 ± 0.032	4.54 ± 0.027
x2 = 0.9529	817.221 ± 0.42	813.871 ± 0.42	810.331 ± 0.42	1344.9 ± 0.8	1327.9 ± 0.8	1310.9 ± 0.8	6.86 ± 0.039	5.883 ± 0.034	4.944 ± 0.03
